Results: paper PMC5333395, “Assessing histone demethylase inhibitors in cells: lessons learned” (Epigenetics & Chromatin, 2017)

Experiments:
[1] = biological target: T1, KDM4A (Homo sapiens, UniProt O75164, A482E); assay: High-content immunofluorescence (IF) assay, overexpressed full-length FLAG-tagged KDM in HeLa cells; type: cell-based; conditions: HeLa cells transfected with KDM4A
T1 construct: transiently transfecting the full-length FLAG-tagged demethylase (WT) into cells; expressed in transfected cells; host or cells: HeLa
T1 sequence (O75164 1-1064 A482E): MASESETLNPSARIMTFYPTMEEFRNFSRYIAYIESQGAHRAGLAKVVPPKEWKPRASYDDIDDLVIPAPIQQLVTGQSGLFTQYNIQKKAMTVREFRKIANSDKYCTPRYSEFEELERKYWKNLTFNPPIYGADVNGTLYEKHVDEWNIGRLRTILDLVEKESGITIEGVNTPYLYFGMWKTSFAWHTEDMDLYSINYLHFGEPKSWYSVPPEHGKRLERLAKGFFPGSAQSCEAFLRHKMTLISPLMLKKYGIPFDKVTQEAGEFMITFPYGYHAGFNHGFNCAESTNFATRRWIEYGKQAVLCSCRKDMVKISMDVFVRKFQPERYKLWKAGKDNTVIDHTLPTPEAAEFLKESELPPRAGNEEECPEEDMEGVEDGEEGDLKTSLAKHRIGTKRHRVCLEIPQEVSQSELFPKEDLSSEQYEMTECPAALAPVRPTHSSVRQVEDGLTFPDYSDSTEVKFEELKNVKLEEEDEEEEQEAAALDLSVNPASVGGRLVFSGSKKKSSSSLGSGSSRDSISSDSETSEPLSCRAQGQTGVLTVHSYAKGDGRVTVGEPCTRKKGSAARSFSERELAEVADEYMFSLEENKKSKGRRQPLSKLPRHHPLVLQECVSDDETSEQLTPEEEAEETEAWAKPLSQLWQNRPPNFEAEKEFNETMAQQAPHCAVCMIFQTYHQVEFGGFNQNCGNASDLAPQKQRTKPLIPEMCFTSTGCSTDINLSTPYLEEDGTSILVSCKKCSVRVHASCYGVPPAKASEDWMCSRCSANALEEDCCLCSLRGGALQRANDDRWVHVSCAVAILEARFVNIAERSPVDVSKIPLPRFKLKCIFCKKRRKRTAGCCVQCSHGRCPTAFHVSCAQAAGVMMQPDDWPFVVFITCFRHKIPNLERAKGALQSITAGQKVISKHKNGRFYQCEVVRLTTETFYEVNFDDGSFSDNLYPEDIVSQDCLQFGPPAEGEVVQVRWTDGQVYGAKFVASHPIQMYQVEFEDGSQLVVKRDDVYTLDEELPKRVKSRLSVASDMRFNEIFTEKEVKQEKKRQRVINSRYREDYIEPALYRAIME

[2] = biological target: T2, KDM3A (Homo sapiens, UniProt Q9Y4C1); assay: as above; type: cell-based; conditions: HeLa cells overexpressing WT KDM3A, H3K9me2 mark, 24 h; read-out: KDM3A, in cells, EC50 by IF assay (head: IC50)
T2 sequence (Q9Y4C1 1-1321): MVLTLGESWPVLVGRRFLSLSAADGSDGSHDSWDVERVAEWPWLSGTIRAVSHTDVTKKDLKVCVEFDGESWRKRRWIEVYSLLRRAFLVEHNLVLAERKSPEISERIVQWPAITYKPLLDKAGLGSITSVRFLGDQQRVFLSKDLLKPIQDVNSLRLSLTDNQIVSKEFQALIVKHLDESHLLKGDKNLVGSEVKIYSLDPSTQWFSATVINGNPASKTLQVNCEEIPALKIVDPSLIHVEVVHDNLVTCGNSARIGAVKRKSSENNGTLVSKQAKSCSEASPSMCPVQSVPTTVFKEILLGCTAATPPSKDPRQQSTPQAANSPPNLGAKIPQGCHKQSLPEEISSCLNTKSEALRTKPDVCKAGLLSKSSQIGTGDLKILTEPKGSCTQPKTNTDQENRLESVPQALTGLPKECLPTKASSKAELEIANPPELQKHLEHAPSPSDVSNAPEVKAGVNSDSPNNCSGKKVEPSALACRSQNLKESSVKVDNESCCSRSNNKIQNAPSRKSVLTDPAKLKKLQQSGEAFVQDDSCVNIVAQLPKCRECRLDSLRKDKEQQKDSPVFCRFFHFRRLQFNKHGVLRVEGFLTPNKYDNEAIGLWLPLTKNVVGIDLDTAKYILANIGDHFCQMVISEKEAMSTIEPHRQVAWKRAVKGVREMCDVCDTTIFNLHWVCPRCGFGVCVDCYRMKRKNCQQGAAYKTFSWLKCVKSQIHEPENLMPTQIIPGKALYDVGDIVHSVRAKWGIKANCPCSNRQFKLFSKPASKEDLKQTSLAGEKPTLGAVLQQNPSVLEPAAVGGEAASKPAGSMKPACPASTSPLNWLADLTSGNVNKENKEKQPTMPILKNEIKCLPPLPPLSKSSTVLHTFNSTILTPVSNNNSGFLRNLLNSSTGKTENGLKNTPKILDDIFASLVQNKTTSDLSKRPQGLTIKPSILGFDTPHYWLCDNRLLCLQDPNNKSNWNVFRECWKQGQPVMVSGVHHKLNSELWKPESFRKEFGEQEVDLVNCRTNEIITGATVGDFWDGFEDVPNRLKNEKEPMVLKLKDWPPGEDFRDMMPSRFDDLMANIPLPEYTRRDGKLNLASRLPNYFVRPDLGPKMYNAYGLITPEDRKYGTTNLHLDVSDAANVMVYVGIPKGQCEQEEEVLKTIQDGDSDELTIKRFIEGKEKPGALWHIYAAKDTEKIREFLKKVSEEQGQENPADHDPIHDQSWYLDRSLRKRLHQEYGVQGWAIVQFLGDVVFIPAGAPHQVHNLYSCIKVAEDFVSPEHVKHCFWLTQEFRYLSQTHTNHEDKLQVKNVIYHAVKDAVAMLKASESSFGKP

Effect on H3K9me3 levels in KDM4A IF assay, in words [1] | SMILES | EC50 [2] [µM]
no effect | O=c1[nH]cnc2c(-n3cc(CCN4CCC(c5cccc(Cl)c5)CC4)cn3)cccc12 [CCT366293, 8-(4-(2-(4-(3-Chlorophenyl)piperidin-1-yl)ethyl)-1H-pyrazol-1-yl)quinazolin-4(3H)-one] | –
– | CCN(CCN(C)C)C(=O)CNCc1cncc(C(N)=O)c1 [KDOAM-32] | > 100
